One data set has as its system SJSA-1. Kind of data set: Antitumor activity against human SJSA1 cells xenografted in mouse assessed as tumor regression at 200 mg/kg, qd. The format is functional. (Xenograft models place foreign cells or tissue in a host animal.)
Data set [1] can be described thus: Oral bioavailability in mouse. In kind it is ADME, organism-based. The conditions noted are these: in vivo.
Data set [2] can be described thus: Oral bioavailability in rat. In kind it is ADME, organism-based. Particulars: in vivo.

The values that follow come from ChEMBL document CHEMBL2057187, “AM-8553: a novel MDM2 inhibitor with a promising outlook for potential clinical development” (J Med Chem, 2012).

Structures are written as SMILES.

A word on the bioavailability: it is dose-corrected exposure relative to a reference, in per cent. Higher therefore signals much systemic uptake. Consider `CC[C@@H]([C@H](C)O)N1C(=O)[C@@](C)(CC(=O)O)C[C@H](c2cccc(Cl)c2)[C@H]1c1ccc(Cl)cc1`, for which, in the data set with SJSA-1, the Activity is given as 27%. Moreover, the bioavailability in data set [1] was 12%; in data set [2], 100%.
